Tested on: NF-κB p65
Assay: Immunocytochemistry for NF-κB p65 localization
Format: cell-based
Settings: Panc-1, 10 μM 6 h, TNF-α 30 min
Procedure: Immunocytochemistry was used to determine the translocation of p65 from cytoplasm to nucleus in presence of inflammatory stimuli either with vehicle or AS-10 (10 μM). In a 12 well plate, Panc-1 cells (1.6×10^5) were seeded on top of a small cover slip in DMEM medium. Cells were allowed to attach to the cover slip overnight at 37° C. incubator with 5% CO2. The next day, cells were treated with 10 μM AS-10 for 6 h and further stimulated with TNF-α (100 ng/mL, 3.9 nM) for 30 min. Exactly after 30 min plates were kept on ice and cells were fixed with 4% Formaldehyde Solution made in PBS for 15 min. Cells were washes three times with 1×PBS, followed by 1 h incubation in blocking medium (0.3% Triton X-100, 5% donkey serum, made in 1×PBS) at room temperature in dark. After blocking coverslips were incubated with primary antibody solution (primary antibody diluted 1:500 in 1% BSA solution containing 0.3% Triton X-100) over night at 4° C. Next day, primary antibody was removed and cover slips were washed three times with 1×PBS. Following incubation with 0.03% H2O2 for 15 minutes at room temperature in dark. After the incubation, secondary antibody (Alexa fluor 680) was added at dilution of 1:500 in 1% BSA containing 0.3% triton X-100 and further incubated for 1 hr. […]

CC(=O)Oc1ccccc1C(=O)/N=C1\[Se]CCN1C(=O)c1ccccc1OC(C)=O [AS-10, 2-((3-(2-acetoxybenzoyl)-1,3-selenazolidin-2-ylidene)carbamoyl)phenyl acetate]
translocation of p65 to the nucleus: unable to translocate to the nucleus
